Key:
MCF-7 [1] = experiment: Cell viability (cytotoxicity) assay with MTT; assay type: cell-based; conditions: for TOXICITY 1uM MCF-7 (% viab. approx .): approximate viability percentage
Protocol: (§1) In order to determine the toxicity of the compound, cell viability assays were performed with MTT on breast tumour lines MCF-7, BT-474 and MDA-MB-436. […] The fact that cell viability was not affected at a high concentration reflects the low toxicity of the compound at the dose required for its effectiveness in functional assays.

BT-474 = experiment: Cell viability (cytotoxicity) assay with MTT; assay type: cell-based; conditions: for TOXICITY 1uM BT-474 (% viab. approx .): approximate viability percentage
Protocol: as §1

MCF-7 [2] = experiment: Sphere test (formation of tumour mammospheres); assay type: cell-based; design: ACTIVITY IN SPHERE TEST % sphere formation MCF-7: concentration or dose not given beside the values; conditions: for ACTIVITY IN SPHERE TEST % sphere formation MCF-7: MCF-7 mammospheres, 7 days in suspension culture
Description: (§2) The formation of spheres derived from breast tumours has been described as an effective method for enrichment of cell cultures in CSCs because of the higher ability of cells derived from these culture in generating tumours in vivo when transplanted in immunocompromised mice (Ponti D, et al., (2005) Cancer Res 65(13):5506-11, 34). A directly proportional relationship is therefore established between the percentage of the CSCs subpopulation in the culture and the ability to form spheres. Tumour cell lines growing in suspension are used in these tests in order to enrich the culture in tumour stem cells. CSCs are the only cells capable of proliferating in these conditions, giving rise to structures named spheres. In fact, the cells that grow in suspension acquire the properties of tumour stem cells and are used in the assays used in this patent for identifying drugs effective against them. In principle, compounds that affect tumour stem cells should slow their growth and potentially cause their death. This assay is tuned for breast cancer cell lines according to Leis, O., et al (2012), Oncogene, 31, 1354-1365. Cells are seeded at a density of 1,000 cells/mL on 6-well plates, previously treated with poly-HEMA (poly(2-hydroxyethyl methacrylate)), Sigma-Aldrich) to prevent the cells adhering to the plastic of the plate. A DMEM high glucose medium supplemented with F12 (Nutrient Mixture F-12 HAM, Sigma), B27 (B27 Supplement 50X, Gibco 17504-044) and growth factors, EGF and bFGF is used for culture. Methylcellulose at a final concentration of 0.5% was added to increase the viscosity of the culture medium. Cells were incubated for 7 days at 37° C, adding growth factors (20 ng/mL of each factor), every two days and counted under a microscope.

BT474 = experiment: Sphere test (formation of tumour mammospheres); assay type: cell-based; design: ACTIVITY IN SPHERE TEST % sphere formation BT474: concentration or dose not given beside the values; conditions: for ACTIVITY IN SPHERE TEST % sphere formation BT474: BT474 mammospheres, 7 days in suspension culture
Description: as §2

MDA-MB-436 [3] = experiment: Sphere test (formation of tumour mammospheres); assay type: cell-based; conditions: for ACTIVITY IN SPHERE TEST % sphere formation MDA-MB-436: MDA-MB-436 mammospheres, 7 days in suspension culture
Description: as §2

MDA-MB-436 [4] = experiment: Cell viability (cytotoxicity) assay with MTT; assay type: cell-based; conditions: 1µM and tenfold higher dose
Protocol: as §1

SOX-2 = experiment: Reporter of the promoter region of enhancer R1 of SOX-2 in a transiently transfected breast tumour line; assay type: cell-based; conditions: breast tumour line MDA_MB-436 / HRE9X-LUC; cells cultivated in suspension; Fig. 2
Description: In order to identify whether the direct inhibitors of mammosphere formation and HIF activity inhibited the transcriptional activation of SOX2, reported in breast cancer CSCs (Leis, O., et al (2012), Oncogene, 31, 1354-1365), breast tumour lines were constructed, transiently transfected with the promoter region of enhancer R1 of SOX-2 by Lipofectamine (Invitrogen) according to the manufacturer's instructions. Their induction on cultivating the cells in suspension was compared and the inhibition of this activation was measured on treating the cells with the inhibitor IQM11PS04.

HIF = experiment: HRE-LUC test (9XHRE-LUC luciferase reporter of HIF activity in a breast tumour line); assay type: cell-based, human; conditions: for inhibition at 5 µM: Homo sapiens, inhibition percentage, read-out: HIF HRE-LUC (% inhib. 5µM)
Description: In order to identify direct inhibitors of HIF activity, a breast tumour line MCF7 was first constructed containing the deoxyribonucleic acid sequences (DNA) of the region located between the positions -985 and -951 of the human vascular endothelium growth factor (hVEGF), repeated nine times (X9) and fused to the luciferase reporter gene (LUC) (Moreno-Manzano V, et al (2010) JBC 285 (2) 1333-1342). This plasmid called 9XHRE-LUC, kindly given by Dr Manuel Ortiz de Landazuri of the La Princesa Hospital of Madrid, was prepared using a commercial kit (Endofree Maxi-Prep; Qiagen, Inc., Valencia, CA). Transfections were performed with Lipofectamine (Invitrogen) according to the manufacturer's instructions.

Row | Structure (SMILES) | TOXICITY 1uM MCF-7 (% viab. approx .) (MCF-7 [1]) [%] | TOXICITY 1uM BT-474 (% viab. approx .) (BT-474) [%] | ACTIVITY IN SPHERE TEST % sphere formation MCF-7 (MCF-7 [2]) [%] | ACTIVITY IN SPHERE TEST % sphere formation BT474 (BT474) [%] | ACTIVITY IN SPHERE TEST % sphere formation MDA-MB-436 (MDA-MB-436 [3]) [%] | percentage of cell death in treated cultures (MDA-MB-436 [4]) | percentage of cell death in treated cultures (MCF-7 [1]; 1µM and tenfold higher dose, MCF-7) | percentage of cell death in treated cultures (BT-474; 1µM and tenfold higher dose, BT-474) | inhibitory ability in the formation of mammospheres (MCF-7 [2]; 1 µM added in the final stage of sphere formation, MCF7, versus DMSO) | inhibition of the induction of SOX2 (expression of the promoter region of enhancer R1 of SOX-2) (SOX-2) | action on HIF-2α (HIF; 1µM and tenfold higher dose) | inhibition at 5 µM (HIF) [%] | inhibition in the expression of luciferase (HRE-LUC test) (HIF; increasing concentrations, Fig. 1) | inhibitory ability in the formation of mammospheres (BT474; 1 µM added in the final stage of sphere formation, BT474, versus DMSO) | inhibitory ability in the formation of mammospheres (MDA-MB-436 [3]; 1 µM added in the final stage of sphere formation, MDA-MB-436, versus DMSO)
1 | COc1cccc(C2=NC3COC(=O)CC3O2)c1 (stereo not shown) [IQM11PS01, 2-(3-methoxyphenyl)-7,7a-dihydro-3aH-pyrano[3,4-d]oxazole-6(4H)-one] | 115 | 97 | 0 | 2 |  |  |  |  |  |  |  |  |  |  | 
2 | O=C1CC2OC(c3cc(OCc4ccccc4)cc(OCc4ccccc4)c3)=NC2CO1 (stereo not shown) [IQM11PS03, 2-(3,5-bis(benzyloxy)phenyl)-7,7a-dihydro-3aH-pyrano[3,4-d]oxazole-6(4H)-one] | 98 | 97 | 0 | 12 | 88 |  |  |  |  |  |  |  |  |  | 
3 | COc1cc(OC)cc(C2=NC3COC(=O)CC3O2)c1 (stereo not shown) [IQM11PS02, 2-(3,5-dimethoxyphenyl)-7,7a-dihydro-3aH-pyrano[3,4-d]oxazole-6(4H)-one] | 99 | 55 | 0 | 4 |  |  |  |  |  |  |  |  |  |  | 
4 | CCCOc1cccc(C2=NC3COC(=O)CC3O2)c1 (stereo not shown) [IQM11PS04, 2-(3-propoxyphenyl)-7,7a-dihydro-3aH-pyrano[3,4-d] oxazole-6(4H)-one] | 109 | 89 | 0 | 1 |  | did not cause a significant increase | did not cause a significant increase | did not cause a significant increase | significant inhibitory ability | significantly inhibits | significant action | 92 | significantly inhibits | significant inhibitory ability | significant inhibitory ability
5 | CCCCCOc1cccc(C2=NC3COC(=O)CC3O2)c1 (stereo not shown) [IQM11PS05, 2-(3-pentyloxyphenyl)-7,7a-dihydro-3aH-pyrano[3,4-d]oxazole-6(4H)-one] | 92 | 168 | 0 | 8 |  |  |  |  |  |  |  | 96 |  |  | 
6 | O=C1CC2OC(c3cccc(OCCN4CCOCC4)c3)=NC2CO1 (stereo not shown) [IQM11PS06, 2-(3-(2-morpholinoethoxy)phenyl)-7,7a-dihydro-3aH-pyrano[3,4-d]oxazole-6(4H)-one] | 97 | 86 | 20 | 27 | 79 |  |  |  |  |  |  |  |  |  | 

Reference: patent EP3031809A1, “2-phenyl-7,7a-dihydro-3aH-pyran[3,4-d]oxazol-6(4H)-ones” (CONSEJO SUPERIOR DE INVESTIGACIONES CIENTIFICAS, priority 2014, dated 2016)
